Measurements: patent US20080039483A1, “Novel Chelidonine Derivatives, Methods for the Production Thereof, and Use Thereof For Producing Pharmaceutical Agents” (priority 2003, published 2008)
In brackets after ≈: the same amount, converted by molar mass.

Assays:
[1] = system: T47D (breast); experiment: MTT cytotoxicity test, T47D; format: cell-based
[2] = system: Colo205 (colon); experiment: MTT cytotoxicity test, Colo205; format: cell-based
[3] = system: Panc1 (pancreas); experiment: MTT cytotoxicity test, Panc1; format: cell-based
[4] = system: BxPC3 (pancreas); experiment: MTT cytotoxicity test, BxPC3; format: cell-based
[5] = system: U373MG (astrocyte); experiment: MTT cytotoxicity test, U373MG; format: cell-based
[6] = system: T47D, Colo205, Panc1, BxPC3, U373MG, SK-0V3; experiment: MTT cytotoxicity test, activity compared to native chelidonine across the cell lines; format: cell-based; settings: for activity compared to native chelidonine: overall, times higher than native chelidonine; for activity compared to native chelidonine, range: range of times higher than native chelidonine
[7] = system: SK-0V3 (ovarian)

| Compound | IC50 ([1]; Homo sapiens) [µg/mL] | IC50 ([2]; Homo sapiens, COLO 205) [µg/mL] | IC50 ([3]; Homo sapiens, PANC-1) [µg/mL] | IC50 ([4]; Homo sapiens, BXPC-3) [µg/mL] | IC50 ([5]; Homo sapiens, U373 MG) [µg/mL] | IC50, MTT cytotoxicity test [1] [µg/mL] | IC50, MTT cytotoxicity test [2] [µg/mL] | IC50, MTT cytotoxicity test [3] [µg/mL] | IC50, MTT cytotoxicity test [4] [µg/mL] | IC50, MTT cytotoxicity test [5] [µg/mL] | activity compared to native chelidonine [6] | activity compared to native chelidonine, range [6] | IC50, MTT cytotoxicity test [7] [µg/mL] |
| --- | --- | --- | --- | --- | --- | --- | --- | --- | --- | --- | --- | --- | --- |
| CN1Cc2c(ccc3c2OCO3)[C@@H]2[C@H]1c1cc3c(cc1C[C@@H]2O)OCO3 [Chelidonine] | 0.2 (≈ 0.566 µM) | 0.37 (≈ 1.05 µM) | 0.25 (≈ 0.707 µM) | > 8 | > 8 |  |  |  |  |  |  |  |  |
| COC(=O)CCC(=O)O[C@H]1Cc2cc3c(cc2[C@@H]2[C@H]1c1ccc4c(c1CN2C)OCO4)OCO3 [Chelidoninyl methyl succinate, Succinic Acid Chelidoninyl Methyl ester] |  |  |  |  |  | 0.02 | 0.0035 | 0.005 | <0.0035 | 4 | approximately 30 times | 50-150 times | 0.0035 |
| CN1Cc2c(ccc3c2OCO3)C2C(OC(=O)OC(Cl)(Cl)Cl)Cc3cc4c(cc3C21)OCO4 (centres unmarked) [Chelidoninyl trichloromethyl carbonate, Chelidoninyl Trichloromethyl Carbonate] |  |  |  |  |  | 0.2 (≈ 0.389 µM) | 0.5 (≈ 0.971 µM) | 0.25 (≈ 0.486 µM) | >8 | >8 |  |  |  |
| Chelidoninyl Trifluoroacetate [Chelidonine trifluoroacetate] |  |  |  |  |  | 0.02 | 0.045 | 0.06 | 0.03 | >4 | 5 times | 4-10 times | 0.06 |
